Values of other authors, collected in patent publication US20150031700A1, “Methods of Treating Cutaneous Flushing Using Selective Alpha-2-adrenergic Receptor Agonists” (GALDERMA LABORATORIES INC., priority 2003, published 2015).

How the values were obtained:
[1] = tested on: α2 adrenergic receptor; details: α2 vs α1 adrenergic receptor, compared with clonidine
[2] = toxicity studies; Walters, 1996
[3] = tested on: α2 adrenergic receptor; details: compared with clonidine; Burke et al., 1996

Compound | selectivity for the α2 adrenergic receptor relative to clonidine [1] | oncogenic or teratogenic activity [2] | toxicity [2] | α2 adrenergic receptor activity relative to clonidine [3] [fold]
Brc1c(NC2=NCCN2)ccc2nccnc12 [brimonidine] | 7-12 fold | – | – | –
brimonidine tartrate | – | no oncogenic or teratogenic activity | nontoxic | 10
